# Assay results from paper PMC10066365, “Nemacol is a small molecule inhibitor of C. elegans vesicular acetylcholine transporter with anthelmintic potential” (Nature Communications, 2023).
# Several values for one entry are separate records, joined by “and”; a condition that tells them apart may be missing. Equal values may be shown once. Read-outs that look alike come from different tables or passages of the source.
# Key:
# [1] = system: Dirofilaria immitis microfilariae; experiment: Dirofilaria immitis microfilariae immobility assay (DiroImager, 72 h); details: for % effect (motility), DIROIM MF: Dirofilaria immitis microfilariae
# Method in brief: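 About 250 freshly purified microfilariae of the Missouri isolate per well in supplemented RPMI 1640, exposed to compound for 72 h. Motility scored by automated whole-plate optical imaging; medium with 1% DMSO as negative control.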
# rat VAChT = target: T1, rat VAChT (Rattus norvegicus, UniProt Q62666); experiment: [3H]Vesamicol competitive radioligand binding, PC12 cells expressing ratVAChT
# T1 construct: expressed in transfected cells; host or cells: rat PC12 (PC12 A123.7) cells, stably transfected; shared by Dr. Ali Roghani (Texas Tech University)
# T1 sequence (Q62666 1-530): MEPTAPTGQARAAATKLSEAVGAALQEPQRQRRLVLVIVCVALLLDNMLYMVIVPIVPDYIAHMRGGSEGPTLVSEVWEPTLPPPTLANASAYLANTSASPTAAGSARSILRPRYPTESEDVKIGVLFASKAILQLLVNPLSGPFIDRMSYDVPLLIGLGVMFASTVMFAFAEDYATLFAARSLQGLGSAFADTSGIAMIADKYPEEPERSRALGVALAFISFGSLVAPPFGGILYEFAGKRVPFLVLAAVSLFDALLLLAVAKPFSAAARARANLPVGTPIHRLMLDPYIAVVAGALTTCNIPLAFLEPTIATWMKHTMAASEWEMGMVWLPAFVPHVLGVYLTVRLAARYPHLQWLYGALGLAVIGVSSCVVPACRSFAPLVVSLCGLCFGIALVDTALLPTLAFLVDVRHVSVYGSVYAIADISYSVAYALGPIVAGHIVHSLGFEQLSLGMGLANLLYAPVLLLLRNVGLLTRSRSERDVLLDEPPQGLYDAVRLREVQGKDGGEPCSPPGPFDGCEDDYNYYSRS
# C. elegans = C. elegans motor phenotype scoring on solid media (Punc/jerky-unc, coiled, paralyzed), wild-type young adults; format: in vivo, Caenorhabditis elegans; details: for atypical locomotion (number of animals) / coiled (number of animals) / no phene (number of animals) / paralyzed (number of animals): young adults, 20 animals per trial, single replicate counts; for EC50: Caenorhabditis elegans, any motor phenotype after 1 h on solid media, ± 95% CI, read-out: C. elegans - motor disruption EC50
# [2] = system: Dirofilaria immitis L3/L4; experiment: Dirofilaria immitis L3/L4 motility assay (DiroImager, 72 h); details: for % effect (motility), DIROIM L4: Dirofilaria immitis L4
# Pristionchus pacificus = Pristionchus pacificus motor disruption dose-response on solid media, 1 h; details: for mean % any phene (coiled, jerky-Unc or paralyzed): Pristionchus pacificus young adults, mean of three biological replicates; for EC50: Pristionchus pacificus, 1 h, read-out: P. pacificus motor disruption EC50; for rep 1 atypical locomotion / rep 1 coiled / rep 1 no phene / rep 1 paralyzed / rep 2 atypical locomotion / rep 2 coiled / rep 2 no phene / rep 2 paralyzed: count of 20 animals per trial, one hour
# [3] = conc 3.75, observed at one hour
compound,measurement,setting,value
CC1CCC(N2CCN(c3ccc([N+](=O)[O-])cc3)CC2)CC1 (stereo not drawn) [Nemacol-5],"% effect (motility), DIROIM MF",[1]; 0.08 µM,0%
same,"% effect (motility), DIROIM MF",[1]; 0.4 µM,0%
same,"% effect (motility), DIROIM MF",[1]; 2 µM,20%
same,"% effect (motility), DIROIM MF",[1]; 10 µM,80%
same,"% effect (motility), DIROIM MF",[1]; 50 µM,100%
same,EC50,"[1]; Dirofilaria immitis, 72 h, read-out: Dirofilaria immitis filariae EC50",4.5 µM
same,Ki,"rat VAChT; [3H]Vesamicol displacement, mean, read-out: ratVAChT Ki",3.76e-07 M
same,"any phene, mean % fraction of young adults exhibiting any phenotype (coiled, jerky-Unc or paralyzed)","C. elegans; 3.75uM, one hour, mean of three biological replicates",3.333%
same,atypical locomotion (number of animals),"C. elegans; 3.75uM, one hour",0 and 3 and 1
same,coiled (number of animals),"C. elegans; 3.75uM, one hour",0
same,no phene (number of animals),"C. elegans; 3.75uM, one hour",20 and 17 and 19
same,paralyzed (number of animals),"C. elegans; 3.75uM, one hour",0
same,"any phene, mean % fraction of young adults exhibiting any phenotype (coiled, jerky-Unc or paralyzed)","C. elegans; 15uM, one hour, mean of three biological replicates",97.5%
same,atypical locomotion (number of animals),"C. elegans; 15uM, one hour",9 and 12 and 13
same,coiled (number of animals),"C. elegans; 15uM, one hour",10 and 6 and 5 and 4
same,no phene (number of animals),"C. elegans; 15uM, one hour",0 and 3
same,paralyzed (number of animals),"C. elegans; 15uM, one hour",1 and 2 and 0 and 3 and 5
same,"any phene, mean % fraction of young adults exhibiting any phenotype (coiled, jerky-Unc or paralyzed)","C. elegans; 60uM, one hour, mean of three biological replicates",100%
same,atypical locomotion (number of animals),"C. elegans; 60uM, one hour",1 and 3 and 0 and 2 and 16 and 15
same,coiled (number of animals),"C. elegans; 60uM, one hour",16 and 12 and 14 and 13 and 0
same,no phene (number of animals),"C. elegans; 60uM, one hour",0
same,paralyzed (number of animals),"C. elegans; 60uM, one hour",3 and 5 and 6 and 4
same,EC50,C. elegans,7.3 ± 3.8 µM
same,"% effect (motility), DIROIM L4",[2]; 0.016 µM,5%
same,"% effect (motility), DIROIM L4",[2]; 0.08 µM,0%
same,"% effect (motility), DIROIM L4",[2]; 0.4 µM,0%
same,"% effect (motility), DIROIM L4",[2]; 2 µM,10%
same,"% effect (motility), DIROIM L4",[2]; 10 µM,100%
same,"% effect (motility), DIROIM L4",[2]; 50 µM,100%
same,activity against D. immitis (EC50),[2]; either D. immitis assay of Fig. 4c,low micromolar activity
same,"mean % any phene (coiled, jerky-Unc or paralyzed)",Pristionchus pacificus; [3],0%
same,"mean % any phene (coiled, jerky-Unc or paralyzed)","Pristionchus pacificus; conc 15, observed at one hour",15%
same,"mean % any phene (coiled, jerky-Unc or paralyzed)","Pristionchus pacificus; conc 60, observed at one hour",100%
same,EC50,Pristionchus pacificus,16.5 µM
Clc1ccc(N2CCN(CC3CC4C=CC3C4)CC2)cc1 (stereo not drawn) [Nemacol-46],"% effect (motility), DIROIM MF",[1]; 0.016 µM,0%
same,"% effect (motility), DIROIM MF",[1]; 0.08 µM,0%
same,"% effect (motility), DIROIM MF",[1]; 0.4 µM,0%
same,"% effect (motility), DIROIM MF",[1]; 2 µM,0%
same,"% effect (motility), DIROIM MF",[1]; 10 µM,0%
same,Ki,"rat VAChT; [3H]Vesamicol binding, PC12, experiment 1, read-out: expt 1 Ki (M) vs. rat VAChT (PC12)",9.16e-08 M
same,Ki,"rat VAChT; [3H]Vesamicol binding, PC12, experiment 2, read-out: expt 2 Ki (M) vs. rat VAChT (PC12)",7.54e-08 M
same,Ki,"rat VAChT; [3H]Vesamicol binding, rat VAChT (PC12), mean of 2-3 experiments, read-out: mean Ki",8.35e-08 M
same,"any phene (mean % fraction of young adults exhibiting any phenotype: coiled, jerky-Unc or paralyzed)","C. elegans; 3.75uM, one hour, mean of three biological replicates, third c14 line of each analog",89.1667%
same,EC50,C. elegans,2.3 µM
same,"% effect (motility), DIROIM L4",[2]; 2 µM,0%
same,"% effect (motility), DIROIM L4",[2]; 10 µM,5%
same,"% effect (motility), DIROIM L4",[2]; 50 µM,25%
same,"mean % any phene (coiled, jerky-Unc or paralyzed)",Pristionchus pacificus; [3],41.6667%
same,"mean % any phene (coiled, jerky-Unc or paralyzed)","Pristionchus pacificus; conc 15, observed at one hour",58.3333%
same,"mean % any phene (coiled, jerky-Unc or paralyzed)","Pristionchus pacificus; conc 60, observed at one hour",84.1667%
same,EC50,Pristionchus pacificus,7 ± 2.4 µM
same,rep 1 atypical locomotion,Pristionchus pacificus; conc 3.75,0
same,rep 1 coiled,Pristionchus pacificus; conc 3.75,0
same,rep 1 no phene,Pristionchus pacificus; conc 3.75,20
same,rep 1 paralyzed,Pristionchus pacificus; conc 3.75,0
same,rep 2 atypical locomotion,Pristionchus pacificus; conc 3.75,4
same,rep 2 coiled,Pristionchus pacificus; conc 3.75,0
same,rep 2 no phene,Pristionchus pacificus; conc 3.75,16
same,rep 2 paralyzed,Pristionchus pacificus; conc 3.75,0
same,rep 1 atypical locomotion,Pristionchus pacificus; conc 15,11
same,rep 1 coiled,Pristionchus pacificus; conc 15,4
same,rep 1 no phene,Pristionchus pacificus; conc 15,4
same,rep 1 paralyzed,Pristionchus pacificus; conc 15,1
same,rep 2 atypical locomotion,Pristionchus pacificus; conc 15,0
same,rep 2 coiled,Pristionchus pacificus; conc 15,8
same,rep 2 no phene,Pristionchus pacificus; conc 15,0
same,rep 2 paralyzed,Pristionchus pacificus; conc 15,12
same,rep 1 atypical locomotion,Pristionchus pacificus; conc 60,4
same,rep 1 coiled,Pristionchus pacificus; conc 60,6
same,rep 1 no phene,Pristionchus pacificus; conc 60,0
same,rep 1 paralyzed,Pristionchus pacificus; conc 60,10
same,rep 2 atypical locomotion,Pristionchus pacificus; conc 60,0
same,rep 2 coiled,Pristionchus pacificus; conc 60,8
same,rep 2 no phene,Pristionchus pacificus; conc 60,0
same,rep 2 paralyzed,Pristionchus pacificus; conc 60,12
